The record followed here is US20110112193A1 (priority 2008, published 2011).

This test concerns the target T1, Recombinant human LTC4 synthase (Homo sapiens, UniProt Q16873).
T1 construct: made in house; host or cells: Pichia pastoris ('Piccia pastoralis' [sic])
T1 sequence (Q16873 1-150): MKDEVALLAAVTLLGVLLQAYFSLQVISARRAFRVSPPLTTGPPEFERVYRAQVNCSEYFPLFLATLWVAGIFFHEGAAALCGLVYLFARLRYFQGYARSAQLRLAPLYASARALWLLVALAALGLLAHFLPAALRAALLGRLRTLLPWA
In words: LTC4 synthase in vitro assay (e.g. by HTRF detection). The class given is biochemical. The procedure:
In the assay, LTC4 synthase catalyses the reaction where the substrate LTA4 methyl ester is converted to the corresponding LTC4 methyl ester. Recombinant human LTC4 synthase is expressed in Piccia pastoralis and the purified enzyme is dissolved in 25 mM Tris-buffer pH 7.8 and stored at −80° C. The assay is performed in phosphate buffered saline (PBS) pH 7.4, supplemented with 5 mM glutathione (GSH). The reaction is terminated by addition of acetonitrile/MeOH/acetic acid (50/50/1). The assay is performed at rt in 96-well plates. Analysis of the formed LTC4 methyl ester is performed with reversed phase HPLC (Waters 2795 utilizing an Onyx Monolithic C18 column). The mobile phase consists of acetonitrile/MeOH/H2O (32.5/30/37.5) with 1% acetic acid pH adjusted with NH3 to pH 5.6, and absorbance measured at 280 nm with a Waters 2487 UV-detector.
The following is added chronologically to each well: • 1. 50 μl assay buffer, PBS with 5 mM GSH. • 2. 0.5 μl inhibitor in DMSO (final conc. 1 nM-10 μM). • 3. 2 μl LTC4 synthase in PBS. The total protein concentration in this solution is 0.025 mg/ml. Incubation of the plate at room temperature for 10 minutes. • 4. 1-1.5 μl LTA4 methyl ester (final conc. 10 μM). Incubation of the plate at rt for 1 min. • 5. 50 μl stop solution.
80 μl of the incubation mixture is analysed with HPLC.
Alternatively, HTRF detection can be used:
In the assay, LTC4 synthase catalyses the reaction where the substrate LTA4 is converted to LTC4. Recombinant human LTC4 synthase is expressed in Piccia pastoralis and the purified enzyme is dissolved in 25 mM tris-buffer pH 7.8 supplemented with 0.1 mM glutathione (GSH) and stored at −80° C. The assay is performed in phosphate buffered saline (PBS) pH 7.4 and 5 mM GSH in 384-well plates.
The following is added chronologically to each well:
1.48 μL LTC4 synthase in PBS with 5 mM GSH. The total protein concentration in this solution is 0.5 μg/mL.
2. 1 μL inhibitor in DMSO (final concentration 1 nM to 10 μM).
3. Incubation of the plate at room temperature for 10 min.
4. 1 μL LTA4 (final concentration 2.5 μM).
5. Incubation of the plate at room temperature for 5 min.
6. 10 μL of the incubation mixture is analysed using homogenous time resolved fluorescent (HTRF) detection.
On the technique in general: Time-resolved FRET reads energy transfer from a long-lived donor to a nearby acceptor.
For the molecule `O=C(O)c1cc(Oc2ccc(Nc3ccc(F)c(F)c3)cc2C(=O)O)ccc1Nc1ccc(F)c(F)c1` [Example 4], the concentration for half-maximal inhibition (IC50) turned out to be 2.03 µM.

For the molecule `CCCCOc1ccc(S(=O)(=O)Nc2ccc(Oc3ccc(Nc4ccc(F)c(F)c4)cc3C(=O)O)cc2C(=O)O)cc1` [Example 3, 2-(4-Butoxy-benzene-sulfonylamino)-5-[2-carboxy-4-(3,4-difluoro-phenylamino)-phenoxy]-benzoic acid], the IC50 stood at 1.02 µM.

For the molecule `O=C(O)c1cc(Nc2ccc(F)c(F)c2)ccc1Oc1ccc(Nc2ccc(F)c(F)c2)cc1` [Example 2, 5-(3,4-Difluoro-phenylamino)-2-[4-(3,4-difluoro-phenylamino)-phenoxy]-benzoic acid], the IC50 was determined as 1.9 µM.

In the case of `CCCCOc1ccc(S(=O)(=O)Nc2ccc(Oc3ccc(Nc4ccc(F)c(F)c4)cc3C(=O)O)cc2)cc1` [Example 1, 2-[4-(4-Butoxy-benzene-sulfonylamino)-phenoxy]-5-(3,4-difluoro-phenyl-amino)-benzoic acid], the 50% inhibitory concentration (IC50) stood at 0.243 µM.

One may read the IC50 as the point on the concentration scale where inhibition reaches its midpoint.
